Experiments:
[1] = MTT cell viability assay in RAW 264.7 cells; format: cell-based, murine; conditions: mouse; for CC50 at 24 hr: read-out: Cell viability: CC50 (cytotoxic concentration that produces 50% cell survival); for viability at 24 hr, 10 µM: 10 μM compound, read-out: Cell viability: Survival rate at 10 μM (%)
Method: (§1) Cell viability was measured by MTT assay in RAW 264.7 cells upon treatment with 10 μM compounds for 24 hr. CC50 (the cytotoxic concentration that produces 50% cell survival) were identified in this example.

[2] = tested on: RAW 264.7 cells; test: MTT cell viability assay in RAW 264.7 cells; format: cell-based, murine; conditions: 24 hr; for Cell viability: Survival rate at 10 μM (%): 10 μM compound; for CC50: read-out: Cell viability: CC50 (cytotoxic concentration that produces 50% cell survival)
Method: as §1

[3] = tested on: RAW 264.7 cells; test: TRAP staining and activity assay of RANKL-induced osteoclastogenesis; format: cell-based, murine; conditions: 10 μM compound; for Osteoclastogenesis: TRAP+ MNCS at 10 μM (%): 100 ng/mL RANKL, 5 days, relative to RANKL without drug; for Inhibitory activity on osteoclastogenesis (in words) / Inhibition of osteoclast differentiation, TRAP staining (FIG. 1 C, D, E): RANKL
Method: The murine RAW 264.7 cell was an osteoclast precursor cell. RAW 264.7 cells were cultured in DMEM (Gibco BRL), 10% FBS, Penicillin (100 U/L), Streptomycin (100 U/L), 5% CO2, 37° C. To induce the murine RAW 264.7 cells differentiation, the cells were cultured in 96-well culture dish 10^4 cell per dish with α-MEM, 10% FBS, 2 mM L-glutamate, Penicillin (100 U/L), Streptomycin (100 U/L), with or without 100 ng/mL RANKL for 5 days, and added or not added tested drug, replaced the fresh medium at 3 day. The cells were TRAP^+ stained and analyzed the activity, then washed the cells by PBS and fixed by 3.7% formaldehyde for 30 minutes, then washed by PBS. The cells were reacted in Leukocyte Acid Phosphatase Assay kit (Sigma) at 37° C. for 1 hr, and washed by distilled water for three times and counted the multinucleated cells numbers by microscopy.
After treatment with RANKL and 10 μM compounds in RAW 264.7, the osteoclasts were counted percentage of the TRAP^+ cells (TRAP^+ MNCS %, the denominator was the number of cells which was treated with RANKL but without drug, and the numerator was the number of cells which was treated with RANKL and drug).

[4] = tested on: RAW 264.7 cells; test: Pit formation assay (bone resorption); format: cell-based, murine; conditions: RANKL, 10 μM compound
Method: In pit formation assay, RAW 264.7 cells were cultured in DMEM (Gibco BRL) 10% FBS, Penicillin (100 U/L), streptomycin (100 U/L), 5% CO2 at 37° C. To induce the murine RAW 264.7 cell differentiation, the cells were cultured in 96-well culture dish 10^4 cell per dish with α-MEM, 10% FBS, 2 mM L-glutamate, Penicillin (100 U/L), Streptomycin (100 U/L), with or without 100 ng/mL RANKL for 5 days in the present or absent tested drug, replaced the fresh medium at 3 day. The 24-well plate were washed by PBS and added in 0.5 mL/well chloride solution, stood at room-temperature for 10 minutes for destroying the cell, then stained with 0.1% Toluidine Blue 0.5 mL/well, and washed by distilled water for three times and photographed under microscopy.

Row | SMILES | CC50 at 24 hr [1] | Cell viability: Survival rate at 10 μM (%) [2] | Osteoclastogenesis: TRAP+ MNCS at 10 μM (%) [3] | Inhibitory activity on osteoclastogenesis (in words) [3] | viability at 24 hr, 10 µM [1] | melting point | Inhibition of osteoclast differentiation, TRAP staining (FIG. 1 C, D, E) [3] | Bone resorption, erosion of bone slices (FIG. 2 C, D) [4] | CC50 [2]
1 | COc1ccc(C(=O)O)c(O)c1 [2-hydroxy-4-methoxy-benzoic acid, reference compound] | > 40 µM | 99.4 ± 7.6% | 79.6 ± 8.3% | did not perform significant inhibitory activity | – | – | – | – | –
2 | O=C(O)c1ccccc1O [Salicylic acid, reference compound] | > 40 µM | – | – | did not perform significant inhibitory activity | – | – | – | – | –
3 | O=C(Nc1ccc(Cl)cc1F)c1ccccc1O [compound 1a, N-(4-chloro-2-fluorophenyl)-2-hydroxybenzamide] | 21.3 ± 3.4 µM | – | 49.4±5.4% | – | 93 ± 3.1% | 184 to 185 °C | – | – | –
4 | COc1ccccc1C(=O)Nc1ccc(Cl)cc1F [compound 1b, N-(4-chloro-2-fluorophenyl)-2-methoxybenzamide] | > 40 µM | 101.8 ± 4.5% | 86.0 ± 9.9% | – | – | 111 to 112 °C | – | – | –
5 | O=C(Nc1ccc(Cl)cc1F)c1ccccc1OCc1ccc(F)cc1F [compound 1c, N-(4-chloro-2-fluorophenyl)-2-((2,4-difluorobenzyl)oxy)benzamide] | > 40 µM | 107.2 ± 4.5% | 74.6 ± 6.2% | – | – | 121 to 122 °C | – | – | –
6 | O=c1oc2ccccc2c(=O)n1-c1ccc(Cl)cc1F [compound 1d, 3-(4-chloro-2-fluorophenyl)-2H-benzo[e][1,3]oxazine-2,4(3H)-dione] | > 40 µM | 97.9 ± 2.0% | 3.4±2.1% | – | – | – | significant inhibition of differentiation | the resorption hole was reduced | –
7 | COc1ccc(C(=O)Nc2ccc(Cl)cc2F)c(O)c1 [compound 2a, N-(4-chloro-2-fluorophenyl)-2-hydroxy-4-methoxybenzamide] | – | 103.0 ± 2.8% | 23.8±3.4% | – | – | 186 to 187 °C | significant inhibition of differentiation | the resorption hole was reduced | 32.3 ± 4.9 µM
8 | COc1ccc(C(=O)Nc2ccc(Cl)cc2F)c(OC)c1 [compound 2b, N-(4-chloro-2-fluorophenyl)-2,4-dimethoxybenzamide] | – | 52.9 ± 2.8% | 60.2 ± 3.6% | – | – | 155 to 156 °C | – | – | 13.6 ± 1.2 µM
9 | COc1ccc(C(=O)Nc2ccc(Cl)cc2F)c(OCc2ccc(F)cc2F)c1 [compound 2c, N-(4-chloro-2-fluorophenyl)-2-((2,4-difluorobenzyl)oxy)-4-methoxybenzamide] | > 40 µM | 107.3 ± 4.4% | 68.7 ± 4.6% | – | – | 134 to 135 °C | – | – | –
10 | COc1ccc2c(=O)n(-c3ccc(Cl)cc3F)c(=O)oc2c1 [compound 2d, 3-(4-chloro-2-fluorophenyl)-7-methoxy-2H-benzo[e][1,3]oxazine-2,4(3H)-dione] | > 40 µM | 100.5 ± 2.4% | 36.0±1.8% | – | – | 203 to 204 °C | significant inhibition of differentiation | – | –
11 | O=C(Nc1ccc(F)cc1F)c1ccccc1O [compound 3a, N-(2,4-difluorophenyl)-2-hydroxybenzamide] | > 40 µM | – | 85.9 ± 6.2% | – | 104 ± 3.6% | 186 to 187 °C | – | – | –
12 | COc1ccccc1C(=O)Nc1ccc(F)cc1F [compound 3b, N-(2,4-difluorophenyl)-2-methoxybenzamide] | > 40 µM | 108.5 ± 4.0% | 89.1 ± 5.1% | – | – | 86 to 87 °C | – | – | –
13 | O=C(Nc1ccc(F)cc1F)c1ccccc1OCc1ccc(F)cc1F [compound 3c, 2-((2,4-difluorobenzyl)oxy)-N-(2,4-difluorophenyl)benzamide] | > 40 µM | 101.1 ± 3.2% | 97.6 ± 6.0% | – | – | 135 to 136 °C | – | – | –
14 | O=c1oc2ccccc2c(=O)n1-c1ccc(F)cc1F [compound 3d, 3-(2,4-difluorophenyl)-2H-benzo[e][1,3]oxazine-2,4(3H)-dione] | > 40 µM | – | 69.8 ± 7.7% | – | 105 ± 6.3% | 182 to 183 °C | – | – | –
15 | COc1ccc(C(=O)Nc2ccc(F)cc2F)c(O)c1 [compound 4a, N-(2,4-difluorophenyl)-2-hydroxy-4-methoxybenzamide] | > 40 µM | – | 41.3±8.6% | – | 105 ± 4.7% | 180 to 181 °C | – | – | –
16 | COc1ccc(C(=O)Nc2ccc(F)cc2F)c(OC)c1 [compound 4b, N-(2,4-difluorophenyl)-2,4-dimethoxybenzamide] | > 40 µM | 102.5 ± 9.3% | 93.0 ± 7.7% | – | – | 138 to 139 °C | – | – | –
17 | COc1ccc(C(=O)Nc2ccc(F)cc2F)c(OCc2ccc(F)cc2F)c1 [compound 4c, 2-((2,4-difluorobenzyl)oxy)-N-(2,4-difluorophenyl)-4-methoxybenzamide] | > 40 µM | 106.0 ± 8.8% | 66.2 ± 8.1% | – | – | 131 to 132 °C | – | – | –
18 | COc1ccc2c(=O)n(-c3ccc(F)cc3F)c(=O)oc2c1 [compound 4d, 3-(2,4-difluorophenyl)-7-methoxy-2H-benzo[e][1,3]oxazine-2,4(3H)-dione] | > 40 µM | – | 87.9 ± 9.1% | – | 102 ± 9.1% | 138 to 139 °C | – | – | –
